Experimental findings from US10206907B2, “Compounds useful for the treatment of degenerative and inflammatory diseases” (GALAPAGOS NV, priority 2008, dated 2019) are described below.

Some results are limits rather than exact numbers.

Test [1] deals with Recombinant human JAK2 catalytic domain (Homo sapiens (Human), UniProt O60674). Description: JAK2 inhibition assay. The format is biochemical. As to conditions: semi-quantitative score. The method, then:
After 90 min at 30° C., reactions were stopped by adding of 25 μL/well of 150 mM phosphoric acid. […] Plates were washed 6 times with 300 μL per well of a 75 mM phosphoric acid solution and the bottom of the plates was sealed. 40 μL/well of Microscint-20 was added, the top of the plates was sealed and readout was performed using the Topcount (Perkin Elmer). Kinase activity was calculated by subtracting counts per minute (cpm) obtained in the presence of a positive control inhibitor (10 μM staurosporine) from cpm obtained in the presence of vehicle. The ability of a test compound to inhibit this activity was determined as: Percentage inhibition=((cpm determined for sample with test compound present−cpm determined for sample with positive control inhibitor) divided by (cpm determined in the presence of vehicle−cpm determined for sample with positive control inhibitor))*100%.
Dose dilution series were prepared for the compounds enabling the testing of dose-response effects in the JAK2 assay and the calculation of the IC50 for each compound.

For test [2], the target named is Recombinant human JAK1 catalytic domain (Homo sapiens (Human), UniProt P23458). Description: JAK1 inhibition assay. The test is classed as biochemical. Particulars: semi-quantitative score. The method, boiled down: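 IC50 values come from dose-response series, with each point expressed as percent inhibition of cpm. Vehicle sets full activity and 10 μM staurosporine sets background. Incorporated radioactivity counted by scintillation after washing with 75 mM phosphoric acid.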
Chain of Recombinant human JAK1 catalytic domain (P23458 850-1154): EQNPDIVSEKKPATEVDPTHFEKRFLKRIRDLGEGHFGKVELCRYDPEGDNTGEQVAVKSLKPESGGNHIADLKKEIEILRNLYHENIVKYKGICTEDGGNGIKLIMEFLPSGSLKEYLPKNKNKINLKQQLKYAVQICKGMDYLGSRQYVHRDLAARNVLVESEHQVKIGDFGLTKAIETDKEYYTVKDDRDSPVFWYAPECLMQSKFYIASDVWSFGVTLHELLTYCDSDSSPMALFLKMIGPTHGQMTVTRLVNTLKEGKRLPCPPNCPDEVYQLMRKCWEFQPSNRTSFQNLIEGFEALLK

Chain of Recombinant human JAK2 catalytic domain (O60674 808-1132): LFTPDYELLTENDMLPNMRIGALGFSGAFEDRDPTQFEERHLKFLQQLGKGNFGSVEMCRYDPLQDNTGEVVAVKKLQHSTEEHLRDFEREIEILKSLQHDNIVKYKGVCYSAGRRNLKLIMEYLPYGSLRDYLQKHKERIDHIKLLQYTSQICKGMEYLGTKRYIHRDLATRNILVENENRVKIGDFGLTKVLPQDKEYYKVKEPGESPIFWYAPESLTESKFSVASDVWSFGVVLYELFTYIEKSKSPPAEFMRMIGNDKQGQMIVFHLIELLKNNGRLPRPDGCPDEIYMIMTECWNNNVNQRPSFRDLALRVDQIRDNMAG

As for `C[C@@H]1CN(Cc2ccc(-c3cccc4nc(NC(=O)C5CC5)nn34)cc2)C[C@H](C)O1` [Compound 214, Cyclopropanecarboxylic acid {5-[4-((2R,6S)-2,6-dimethyl-morpholin-4-ylmethyl)-phenyl]-[1,2,4]triazolo[1,5-a]pyridin-2-yl}-amide], the IC50 in test [1] and in test [2] was 101 to 500 nM in each case.

Regarding `CC1(C)COCCN1C(=O)c1ccc(-c2cccc3nc(NC(=O)C4CC4)nn23)cc1` [Compound 216, Cyclopropanecarboxylic acid {5-[4-(3,3-dimethyl-morpholine-4-carbonyl)-phenyl]-[1,2,4]triazolo[1,5-a]pyridin-2-yl}-amide], the IC50 in test [1] and in test [2] was 101 to 500 nM throughout.

With `O=C(Nc1nc2cccc(-c3ccc(C(=O)N4C[C@@H]5C[C@H]4CO5)cc3)n2n1)C1CC1` [Compound 217, Cyclopropanecarboxylic acid {5-[4-((1S,4S)-2-oxa-5-aza-bicyclo[2.2.1]heptane-5-carbonyl)-phenyl]-[1,2,4]triazolo[1,5-a]pyridin-2-yl}-amide], the IC50 (commonly the concentration that gives 50% inhibition) is 501 to 1000 nM in test [1] and 101 to 500 nM in test [2].

With `Cn1nc(C2CC2)cc1NC(=O)c1ccc(-c2cccc3nc(NC(=O)C4CC4)nn23)cc1` [Compound 218, 4-[2-(Cyclopropanecarbonyl-amino)-[1,2,4]triazolo[1,5-a]pyridin-5-yl]-N-(5-cyclopropyl-2-methyl-2H-pyrazol-3-yl)-benzamide], the IC50 in test [1] and in test [2] was 101 to 500 nM throughout.

As for `O=C(Nc1nc2cccc(-c3ccc(C(=O)N4CCC(C(=O)N5CCOCC5)CC4)cc3)n2n1)C1CC1` [Compound 219, Cyclopropanecarboxylic acid (5-{4-[4-(morpholine-4-carbony)-piperidine-1-carbonyl]-phenyl}-[1,2,4]triazolo[1,5-a]pyridin-2-yl)-amide], the IC50 in test [1] and in test [2] was over 1000 nM each time.

On to `CC(=O)N1CCN(C(=O)c2ccc(-c3cccc4nc(NC(=O)C5CC5)nn34)cc2)CC1` [Compound 220, Cyclopropanecarboxylic acid {5-[4-(4-acetyl-piperazine-1-carbonyl)-phenyl]-[1,2,4]triazolo[1,5-a]pyridin-2-yl}-amide], for which the IC50 in test [1] was in the range of 501 to 1000 nM; in test [2], 101 to 500 nM.

Regarding `O=C(Nc1nc2cccc(-c3ccc(CN4C[C@@H]5C[C@H]4CO5)cc3)n2n1)C1CC1` [Compound 230, Cyclopropanecarboxylic acid (5-{4-[(1S,4S)-1-(2-oxa-5-aza-bicyclo[2.2.1]hept-5-yl)methyl]-phenyl}-[1,2,4]triazolo[1,5-a]pyridin-2-yl)-amide], the IC50 in test [1] and in test [2] was 101 to 500 nM in each case.

Consider `O=C(Nc1nc2cccc(-c3ccc(CNc4ccc(N5CCOCC5)nc4)cc3)n2n1)C1CC1` [Compound 237, Cyclopropanecarboxylic acid (5-{4-[(6-morpholin-4-yl-pyridin-3-ylamino)-methyl]-phenyl}-[1,2,4]triazolo[1,5-a]pyridin-2-yl)-amide], for which the IC50 in test [1] was in the range of 501 to 1000 nM; in test [2], 101 to 500 nM.

`O=C(Nc1nc2cccc(-c3ccc(CN4CCC(O)CC4)cc3)n2n1)C1CC1` [Compound 242, Cyclopropanecarboxylic acid {5-[4-(4-hydroxy-piperidin-1-ylmethyl)-phenyl]-[1,2,4]triazolo[1,5-a]pyridin-2-yl}-amide]: the IC50 in test [1] lay within 501 to 1000 nM; in test [2] it was 101 to 500 nM.

`CC(C)(O)C1CCN(Cc2ccc(-c3cccc4nc(NC(=O)C5CC5)nn34)cc2)CC1` [Compound 243, Cyclopropanecarboxylic acid (5-{4-[4-(1-hydroxy-1-methyl-ethyl)-piperidin-1-ylmethyl]-phenyl}-[1,2,4]triazolo[1,5-a]pyridin-2-yl)-amide]: the IC50 fell in the range of 501 to 1000 nM in test [1] and 101 to 500 nM in test [2].

With `CCN(CC)C1CCN(Cc2ccc(-c3cccc4nc(NC(=O)C5CC5)nn34)cc2)CC1` [Compound 247, Cyclopropanecarboxylic acid {5-[4-(4-diethylamino-piperidin-1-ylmethyl)-phenyl]-[1,2,4]triazolo[1,5-a]pyridin-2-yl}-amide], the IC50 in test [1] and in test [2] was over 1000 nM each time.

Take `O=C(Nc1nc2cccc(-c3ccc(CNc4cc(C(F)(F)F)ccc4F)cc3)n2n1)C1CC1` [Compound 248, Cyclopropanecarboxylic acid (5-{4-[(2-fluoro-5-trifluoromethyl-phenylamino)-methyl]-phenyl}-[1,2,4]triazolo[1,5-a]pyridin-2-yl)-amide]: the IC50 in test [1] and in test [2] was 101 to 500 nM each time.

`O=C(Nc1nc2cccc(-c3ccc(CN4CCC(CO)CC4)cc3)n2n1)C1CC1` [Compound 250, Cyclopropanecarboxylic acid {5-[4-(4-hydroxymethyl-piperidin-1-ylmethyl)-phenyl]-[1,2,4]triazolo[1,5-a]pyridin-2-yl}-amide]: the IC50 in test [1] lay in the range of 501 to 1000 nM; in test [2] it was 101 to 500 nM.

As for `NC(=O)C1CCN(C(=O)c2ccc(-c3cccc4nc(NC(=O)C5CC5)nn34)cc2)CC1` [Compound 274, 1-{4-[2-(Cyclopropanecarbonyl-amino)-[1,2,4]triazolo[1,5-a]pyridin-5-yl]-benzoyl}-piperidine-4-carboxylic acid amide], the IC50 in test [1] lay within 501 to 1000 nM; in test [2], 101 to 500 nM.

Take `CC(C)(C)OC(=O)NC1CN(Cc2ccc(-c3cccc4nc(NC(=O)C5CC5)nn34)cc2)C1` [Compound 279, (1-{4-[2-(Cyclopropanecarbonyl-amino)-[1,2,4]triazolo[1,5-a]pyridin-5-yl]-benzyl}-azetidin-3-yl)-carbamic acid tert-butyl ester]: the IC50 in test [1] was over 1000 nM; in test [2] it was 101 to 500 nM.

In the case of `CCOC1CCN(Cc2ccc(-c3cccc4nc(NC(=O)C5CC5)nn34)cc2)CC1` [Compound 282, Cyclopropanecarboxylic acid {5-[4-(4-ethoxy-piperidin-1-ylmethyl)-phenyl]-[1,2,4]triazolo[1,5-a]pyridin-2-yl}-amide], the half-maximal inhibitory concentration (IC50) in test [1] is over 1000 nM; in test [2] it was 101 to 500 nM.

`CC(=O)N(C)C1CN(Cc2ccc(-c3cccc4nc(NC(=O)C5CC5)nn34)cc2)C1` [Compound 283, Cyclopropanecarboxylic acid (5-{4-[3-(acetyl-methyl-amino)-azetidin-1-ylmethyl]-phenyl}-[1,2,4]triazolo[1,5-a]pyridin-2-yl)-amide]: the IC50 in test [1] and in test [2] was over 1000 nM throughout.

`CCN(CC)C1CCN(C(=O)c2ccc(-c3cccc4nc(NC(=O)C5CC5)nn34)cc2)C1` (centres unmarked) [Compound 285, Cyclopropanecarboxylic acid {5-[4-(3-diethylamino-pyrrolidine-1-carbonyl)-phenyl]-[1,2,4]triazolo[1,5-a]pyridin-2-yl}-amide]: the IC50 is over 1000 nM in test [1] and 101 to 500 nM in test [2].

Take `O=C(Nc1nc2cccc(-c3ccc(C(=O)N4CCC(O)(c5ccccc5)CC4)cc3)n2n1)C1CC1` [Compound 286, Cyclopropanecarboxylic acid {5-[4-(4-hydroxy-4-phenyl-piperidine-1-carbonyl)-phenyl]-[1,2,4]triazolo[1,5-a]pyridin-2-yl}-amide]: the IC50 lay in the range of 501 to 1000 nM in test [1] and 101 to 500 nM in test [2].

Regarding `O=C(Nc1nc2cccc(-c3ccc(C(=O)N4CCCC(C(=O)N5CCCCC5)C4)cc3)n2n1)C1CC1` (centres unmarked) [Compound 290, Cyclopropanecarboxylic acid (5-{4-[3-(piperidine-1-carbonyl)-piperidine-1-carbonyl]-phenyl}-[1,2,4]triazolo[1,5-a]pyridin-2-yl)-amide], the results for the IC50 in test [1] and in test [2] were over 1000 nM and 101 to 500 nM, respectively.

As to `CCOC1CCN(C(=O)c2ccc(-c3cccc4nc(NC(=O)C5CC5)nn34)cc2)CC1` [Compound 294, Cyclopropanecarboxylic acid {5-[4-(4-ethoxy-piperidine-1-carbonyl)-phenyl]-[1,2,4]triazolo[1,5-a]pyridin-2-yl}-amide], the IC50 in test [1] is over 1000 nM; in test [2], 101 to 500 nM.

`CCN(CC)C(=O)C1CCCN(C(=O)c2ccc(-c3cccc4nc(NC(=O)C5CC5)nn34)cc2)C1` (centres unmarked) [Compound 295, 1-{4-[2-(Cyclopropanecarbonyl-amino)-[1,2,4]triazolo[1,5-a]pyridin-5-yl]-benzoyl}-piperidine-3-carboxylic acid diethylamide]: the IC50 was over 1000 nM in test [1] and 101 to 500 nM in test [2].

As to `CC(=O)NC1CCCN(C(=O)c2ccc(-c3cccc4nc(NC(=O)C5CC5)nn34)cc2)C1` (centres unmarked) [Compound 296, Cyclopropanecarboxylic acid {5-[4-(3-acetylamino-piperidine-1-carbonyl)-phenyl]-[1,2,4]triazolo[1,5-a]pyridin-2-yl}-amide], the half-inhibitory concentration (IC50) in test [1] is 501 to 1000 nM; in test [2], 101 to 500 nM.

For the compound `CN(C)CC1CN(Cc2ccc(-c3cccc4nc(NC(=O)C5CC5)nn34)cc2)C1` [Compound 298, Cyclopropanecarboxylic acid {5-[4-(3-dimethylaminomethyl-azetidin-1-ylmethyl)-phenyl]-[1,2,4]triazolo[1,5-a]pyridin-2-yl}-amide], the IC50 in test [1] and in test [2] was over 1000 nM in each case.

Take `CN(C)C(=O)C1CN(Cc2ccc(-c3cccc4nc(NC(=O)C5CC5)nn34)cc2)C1` [Compound 299, 1-{4-[2-(Cyclopropanecarbonyl-amino)-[1,2,4]triazolo[1,5-a]pyridin-5-yl]-benzyl}-azetidine-3-carboxylic acid dimethylamide]: the values for the IC50 in test [1] and in test [2] were over 1000 nM and 501 to 1000 nM, respectively.
